Results taken from patent US20260078120A1, “SUBSTITUTED PYRIDOPYRIMIDINONES” (MIRATI THERAPEUTICS, INC., priority 2022, published 2026).

Key:
[1] = test system: T47D (PI3Kα H1047R mutant) cells; assay: CellTiter-Glo 2.0 luminescent cell viability assay, 72 hours, T47D cells; assay type: cell-based; conditions: Homo sapiens, T47D, 72 h, T47D (PI3Kα H1047R mutant) cells, CellTiter-Glo, approximately 72 hours; read-out: T47D (H1047R mutant) Viability IC50
In short: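 Viability was measured by CellTiter-Glo 2.0 luminescence after approximately 72 h of compound exposure at 37° C. Plating was 1000 cells per well the day before dosing, with ten 1:4 dilutions from a 10 µM top concentration. Values as percent of vehicle were fitted by variable-slope log(inhibitor) regression to give IC50.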

[2] = test system: SKBR3 (PI3Kα wild type) cells; assay: CellTiter-Glo 2.0 luminescent cell viability assay, 72 hours, SKBR3 cells; assay type: cell-based; conditions: Homo sapiens, SK-BR-3, 72 h, SKBR3 (PI3Kα wild type) cells, CellTiter-Glo, approximately 72 hours; read-out: SKBR3 (WT) Viability IC50
In short: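 Viability measured via CTG luminescence following roughly 72 hours of compound exposure at 37° C. Dosing used a 10 um starting concentration diluted 1:4 over 10 points; percent-of-vehicle data fitted with a variable-slope four-parameter model for IC50.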

| SMILES | IC50 [1] | IC50 [2] |
| --- | --- | --- |
| Cc1cc([C@@H](C)Nc2ccccc2C(=O)O)c2nc(N3C4CCC3CN(c3ccc(C#N)cc3)C4)c(C)c(=O)n2c1 [Example 11-183, 2-(((1R)-1-(2-(3-(4-cyanophenyl)-3,8-diazabicyclo[3.2.1]octan-8-yl)-3,7-dimethyl-4-oxo-4H-pyrido[1,2-a]pyrimidin-9-yl)ethyl)amino)benzoic acid] | 197 nM | > 10000 nM |
| Cc1cc([C@@H](C)Nc2ccccc2C(=O)O)c2nc(N3CC4CC4C3)c(C)c(=O)n2c1 (stereo partly drawn) [Example 11-224, 2-(((1R)-1-(2-(3-azabicyclo[3.1.0]hexan-3-yl)-3,7-dimethyl-4-oxo-4H-pyrido[1,2-a]pyrimidin-9-yl)ethyl)amino)benzoic acid] | 120 nM | > 10000 nM |
| Cc1cc([C@@H](C)Nc2ccccc2C(=O)O)c2nc(N3CCC4(CCC(F)(F)C4)C3)c(C)c(=O)n2c1 (stereo partly drawn) [Example 11-447, 2-(((1R)-1-(2-(7,7-difluoro-2-azaspiro[4.4]nonan-2-yl)-3,7-dimethyl-4-oxo-4H-pyrido[1,2-a]pyrimidin-9-yl)ethyl)amino)benzoic acid] | 645 nM | > 10000 nM |
| Cc1cc(C(C)Nc2ccc(C(=O)O)cc2)c2nc(N3CCCCC3)cc(=O)n2c1 (stereo not shown) [Example 11-388, 4-((1-(7-methyl-4-oxo-2-(piperidin-1-yl)-4H-pyrido [1,2-a]pyrimidin-9-yl)ethyl)amino)benzoic acid] | > 10000 nM | > 10000 nM |
| Cc1cc([C@@H](C)Nc2cccc(F)c2C(=O)O)c2nc(N3Cc4ccccc4C3)c(C#N)c(=O)n2c1 [Example 11-307, (R)-2-((1-(3-cyano-2-(isoindolin-2-yl)-7-methyl-4-oxo-4H-pyrido[1,2-a]pyrimidin-9-yl)ethyl)amino)-6-fluorobenzoic acid] | 379 nM | > 10000 nM |
| Cc1cc([C@@H](C)Nc2ccccc2C(=O)O)c2nc(N3C[C@H]4C[C@@H]3CN4c3ccc(C#N)cc3)c(C)c(=O)n2c1 [Example 11-176, 2-(((R)-1-(2-((1R,4R)-5-(4-cyanophenyl)-2,5-diazabicyclo[2.2.1]heptan-2-yl)-3,7-dimethyl-4-oxo-4H-pyrido[1,2-a]pyrimidin-9-yl)ethyl)amino)benzoic acid] | 722 nM | > 10000 nM |
| CO[C@H]1CN(c2nc3c([C@@H](C)Nc4ccccc4C(=O)O)cc(C)cn3c(=O)c2C)CC1(F)F [Example 11-118, 2-(((R)-1-(2-((S)-3,3-difluoro-4-methoxypyrrolidin-1-yl)-3,7-dimethyl-4-oxo-4H-pyrido[1,2-a]pyrimidin-9-yl)ethyl)amino)benzoic acid] | 233 nM | > 10000 nM |
| CO[C@H]1CN(c2nc3c([C@@H](C)Nc4ccccc4C(=O)O)cc(C)cn3c(=O)c2C)CCC1(F)F [Example 11-57, 2-(((R)-1-(2-((S)-4,4-difluoro-3-methoxypiperidin-1-yl)-3,7-dimethyl-4-oxo-4H-pyrido[1,2-a]pyrimidin-9-yl)ethyl)amino)benzoic acid] | 132 nM | > 10000 nM |
| Cc1cc([C@@H](C)Nc2ccccc2C(=O)O)c2nc(N3CCC4(CC3)CC(F)(F)C4)c(C)c(=O)n2c1 [Example 11-54, (R)-2-((1-(2-(2,2-difluoro-7-azaspiro[3.5]nonan-7-yl)-3,7-dimethyl-4-oxo-4H-pyrido[1,2-a]pyrimidin-9-yl)ethyl)amino)benzoic acid] | 325 nM | > 10000 nM |
| Cc1cc([C@@H](C)Nc2ccccc2C(=O)O)c2nc(N3C[C@H]4C[C@@H]3C(F)(F)C4)c(C)c(=O)n2c1 [Example 11-228, 2-(((R)-1-(2-((1R,4S)-6,6-difluoro-2-azabicyclo[2.2.1]heptan-2-yl)-3,7-dimethyl-4-oxo-4H-pyrido[1,2-a]pyrimidin-9-yl)ethyl)amino)benzoic acid] | 155 nM | > 10000 nM |
| Cc1cc([C@H](C)Nc2ccc(F)nc2C(=O)O)c2nc(N3CCC(F)(F)CC3)c(C#N)c(=O)n2c1 [Example 11-43, (S)-3-((1-(3-cyano-2-(4,4-difluoropiperidin-1-yl)-7-methyl-4-oxo-4H-pyrido[1,2-a]pyrimidin-9-yl)ethyl)amino)-6-fluoropicolinic acid] | 372 nM | > 10000 nM |
| Cc1cc([C@@H](C)Nc2ccccc2C(=O)O)c2nc(N3CCC4(CC3)CC4)c(C)c(=O)n2c1 [Example 11-221, (R)-2-((1-(3,7-dimethyl-4-oxo-2-(6-azaspiro[2.5]octan-6-yl)-4H-pyrido[1,2-a]pyrimidin-9-yl)ethyl)amino)benzoic acid] | 255 nM | > 10000 nM |
| CNS(=O)(=O)c1ccc(N2CCN(c3nc4c([C@@H](C)Nc5ccccc5C(=O)O)cc(C)cn4c(=O)c3C)CC2)cc1 [Example 10-129, (R)-2-((1-(3,7-dimethyl-2-(4-(4-(N-methylsulfamoyl)phenyl)piperazin-1-yl)-4-oxo-4H-pyrido[1,2-a]pyrimidin-9-yl)ethyl)amino)benzoic acid] | 46.7 nM | > 10000 nM |
| Cc1cc([C@@H](C)Nc2ccccc2C(=O)O)c2nc(N3CC4CC3CC4C)c(C)c(=O)n2c1 (stereo partly drawn) [Example 10-136, 2-(((1R)-1-(3,7-dimethyl-2-(5-methyl-2-azabicyclo[2.2.1]heptan-2-yl)-4-oxo-4H-pyrido[1,2-a]pyrimidin-9-yl)ethyl)amino)benzoic acid] | 64.2 nM | > 10000 nM |

More lines, now with the values ahead:

| IC50 [1] | IC50 [2] | SMILES |
| --- | --- | --- |
| 184 nM | > 10000 nM | COC1CN(c2nc3c([C@@H](C)Nc4ccccc4C(=O)O)cc(C)cn3c(=O)c2C)C1 [Example 11-112, (R)-2-((1-(2-(3-methoxyazetidin-1-yl)-3,7-dimethyl-4-oxo-4H-pyrido[1,2-a]pyrimidin-9-yl)ethyl)amino)benzoic acid] |
| 3630 nM | > 10000 nM | Cc1cc(C(C)Nc2ccccc2C(=O)O)c2nc(C3CCN(C)C(=O)C3)cc(=O)n2c1 (stereo not shown) [Example 11-377, 2-((1-(7-methyl-2-(1-methyl-2-oxopiperidin-4-yl)-4-oxo-4H-pyrido[1,2-a]pyrimidin-9-yl)ethyl)amino)benzoic acid] |
| 5080 nM | > 10000 nM | Cc1cc([C@@H](C)Nc2ccccc2C(=O)O)c2nc(N3CCC(O)CC3)c(C#N)c(=O)n2c1 [Example 11-312, (R)-2-((1-(3-cyano-2-(4-hydroxypiperidin-1-yl)-7-methyl-4-oxo-4H-pyrido[1,2-a]pyrimidin-9-yl)ethyl)amino)benzoic acid] |
| > 10000 nM | > 10000 nM | Cc1cc(C(C)Nc2ccccc2C(=O)O)c2nc(N3CCC3)cc(=O)n2c1 (stereo not shown) [Example 11-407, 2-((1-(2-(azetidin-1-yl)-7-methyl-4-oxo-4H-pyrido[1,2-a]pyrimidin-9-yl)ethyl)amino)benzoic acid] |
| 9070 nM | 3040 nM | Cc1cc(C(C)Nc2ccccc2C(=O)O)c2nc(OC3CCOC3)cc(=O)n2c1 (stereo not shown) [Example 11-371, 2-((1-(7-methyl-4-oxo-2-((tetrahydrofuran-3-yl)oxy)-4H-pyrido[1,2-a]pyrimidin-9-yl)ethyl)amino)benzoic acid] |
| 225 nM | > 10000 nM | Cc1cc([C@@H](C)Nc2ccccc2C(=O)O)c2nc(N3CC[C@H]3C)c(C)c(=O)n2c1 [Example 11-100, 2-(((R)-1-(3,7-dimethyl-2-((R)-2-methylazetidin-1-yl)-4-oxo-4H-pyrido[1,2-a]pyrimidin-9-yl)ethyl)amino)benzoic acid] |
